In patent publication US10364256B2 (GlaxoSmithKline Intellectual Property Development Limited, priority 2015, dated 2019):

Legend:
[1] = target: T1, Keap1 Kelch domain (321-609) / TAMRA-labeled 16mer NRF2 peptide (ETGE motif) (Homo sapiens, UniProt Q14145); test: NRF2-Keap1 FP Assay (Keap1 Kelch fluorescence polarization); assay type: binding; conditions: 20 nM Keap1 (321-609), 8 nM Tamra labeled peptide
T1 construct: the Kelch domain (321-609) of Keap1 is used
Description: One model for the NRF2-Keap1 interaction is through two binding sites in the Neh2 domain on NRF2. The two sites are referred to as the DLG binding motif (latch domain, uM affinity) and the ETGE binding motif (hinge domain, nM affinity). The Keap1 protein consists of an N-terminal region (NTR), a broad complex, tramtrack, and brick a′ brac domain (BTB), an intervening region (IVR), a double glycine repeat domain (DGR or Kelch), and a C-terminal region. The DLG and ETGE motifs of NRF2's Neh2 domain bind to the Kelch domain of Keap1 at different affinities. In the Keap1 Kelch fluorescence polarization (FP) assay, a TAMRA-labeled 16mer peptide (AFFAQLQLDEETGEFL) containing the ETGE motif of NRF2 and the Kelch domain (321-609) of Keap1 is used. The assay determines if a compound interferes with the binding between Keap1 […] and the TAMRA-labeled peptide. Binding of TAMRA-labeled NRF2 peptide to Keap1 (321-609) results in a high FP signal. If a compound interferes with the binding between the peptide and the protein, it will cause the assay signal to decrease. Thus, assay signal is inversely proportional to binding inhibition.
100 nl of 100× compound dose response curves (serial 3-fold dilutions) in DMSO are stamped using an Echo liquid handling system (Labcyte) into 384-well low volume black assay plates (Greiner, #784076), with DMSO in columns 6 and 18. The top concentration of compound is located in columns 1 and 13. Keap1 (321-609) is diluted to 40 nM (2×) in 1× assay buffer (50 mM Tris, pH 8.0, 100 mM NaCl, 5 mM MgCl2, 1 mM DTT, 2 mM CHAPS, and 0.005% BSA) and 5 ul is added using a Multidrop Combi (Thermo Electron Corporation) equipped with a metal tip dispenser to all wells of the compound plate, except column 18. Column 18 receives only 5 ul of assay buffer. Immediately, 5 uL of 16 nM (2×) of Tamra labeled peptide (AFFAQLQLDEETGEFL, 21st Century Biochemicals) is added to all wells of the plate. The plates are spun at 500 rpm for 1 min, incubated for 1 hr at room temperature, and read on an Analyst GT (Molecular Devices) equipped with excitation (530/25 nm) and emission (580/10 nm) filters designed for Tamra probes. A 561 nm dichroic mirror is also used in the Analyst. The final assay concentrations of Keap1 (321-609) and Tamra labeled peptide are 20 nM and 8 nM, respectively. Fluorescence measurements, represented as mP, are used in the transformation of the data. Compound activity is calculated based on percent inhibition, normalized against controls in the assay (Control 1 contains the Tamra peptide and Keap1 (321-609) together (0% response) and control 2 contains the Tamra peptide alone (100% response)). Data analysis is handled using the software package Abase XE (Surrey, United Kingdom. The % inhibition values are calculated by the equation: 100−(100*((compound response−average control 2)/(average control 1−average control2))). For calculation of pIC50s, Abase XE uses a four parameter equation. pIC50 is the negative log of the IC50.

[2] = target: T2, full length Keap1 protein / full length NRF2 protein (Homo sapiens, UniProt Q14145); test: NRF2-Keap1 TR-FRET Low Protein Assay; assay type: binding; conditions: 1.25 nM Keap1 FlagHis and 2.5 nM biotin-NRF2 added
T2 construct: full length NRF2 protein and full length Keap1 protein (Keap1 exists a dimer) are used; His
T2 sequence (Q14145 whole entry): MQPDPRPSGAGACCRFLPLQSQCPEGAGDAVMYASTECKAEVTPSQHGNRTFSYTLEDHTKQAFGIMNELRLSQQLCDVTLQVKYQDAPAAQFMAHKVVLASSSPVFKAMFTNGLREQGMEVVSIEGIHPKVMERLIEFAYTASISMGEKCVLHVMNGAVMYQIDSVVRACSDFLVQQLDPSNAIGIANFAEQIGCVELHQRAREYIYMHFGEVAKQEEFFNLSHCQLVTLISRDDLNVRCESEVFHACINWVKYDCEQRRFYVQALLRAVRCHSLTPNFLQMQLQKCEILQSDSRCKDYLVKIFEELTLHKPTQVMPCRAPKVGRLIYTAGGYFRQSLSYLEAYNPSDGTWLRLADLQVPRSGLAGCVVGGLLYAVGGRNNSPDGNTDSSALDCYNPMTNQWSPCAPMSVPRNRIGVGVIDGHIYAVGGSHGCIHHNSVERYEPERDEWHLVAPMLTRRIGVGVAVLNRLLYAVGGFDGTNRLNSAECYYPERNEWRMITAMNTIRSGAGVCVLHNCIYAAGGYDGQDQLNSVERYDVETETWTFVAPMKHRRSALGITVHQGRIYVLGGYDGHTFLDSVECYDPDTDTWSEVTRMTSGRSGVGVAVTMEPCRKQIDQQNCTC
Description: NRF2-Keap1 TR-FRET Low Protein Assay In the NRF2-Keap1 TR-FRET (time-resolved fluorescence resonance energy transfer) low protein assay, full length NRF2 protein and full length Keap1 protein (Keap1 exists a dimer) are used. The assay detects a compound's ability to displace the binding of Keap1 […] with biotinylated Avi-NRF2 protein. Biotin-NRF2 binds to streptavidin-europium (a component of the detection mix) and Keap1 […] is recognized by anti-Flag APC (allophycocyanin) antibody (also a component of the detection mix). If binding occurs between the two proteins, there will be an energy transfer from the Eu+3 (donor) at 615 nm to the APC (acceptor) at 665 nm. A potential NRF2 inhibitor will cause a reduction in the TR-FRET signal by interfering with the binding of Keap1 to NRF2. Ten nanoliters of 100× compound dose response curves (serial 3-fold dilutions) in DMSO are stamped using an Echo liquid handling system (Labcyte) into 384-well, low volume, black assay plates (Greiner, #784076), with DMSO in columns 6 and 18. An additional 90 nl DMSO is added to each well, to bring the total volume to 100 nl per well. The top concentration of compound is located in columns 1 and 13, with the serial dilutions going across the row. All reagents are diluted in assay buffer (50 mM Tris, pH 8.0, 5 mM MgCl2, 100 mM NaCl, 0.005% BSA, 1 mM DTT, and 2 mM CHAPS. The BSA, DTT, and CHAPS are added to the assay buffer on the day of assay. […] Wells in column 18 receive 5 ul of assay buffer instead. Plates are centrifuged at 500 rpm for 1 minute, covered with a plate lid, and incubated at 37° C. for 2.25 hours. Plates are then removed from the incubator and allowed to cool to RT for 15 minutes. Five microliters of 2.5 nM biotin-NRF2 protein is then added to all wells of the plates and the plates are spun at 500 rpm for 1 minute, followed by incubating at 4° C. for 1.25 hours. The plates are then allowed to warm to RT for 15 minutes, followed by the addition of 10 ul of detection mix (1 nM Streptavidin Eu+W1024 and 5 ug/ml mouse anti-DYKDDDDK IgG conjugated to SureLight APC antibody; both from Columbia Biosciences) to all wells. Plates are spun at 500 rpm for 1 minute, incubated for 1 hour at RT, and read on an Envision plate reader using a 320 nm excitation filter and 615 nm and 665 nm emission filters. […] Data analysis is handled using the software package Abase XE (Surrey, United Kingdom). […] For calculation of pIC50s, Abase XE uses a four parameter equation. pIC50 is the negative log of the IC50.

[3] = test system: NQO1 specific enzyme activity in BEAS-2B cells (marker for NRF2 activation); test: BEAS-2B NQO1 MTT Assay; assay type: cell-based; conditions: Homo sapiens, compound incubated 48 hours, read-out: EC50 (NQO1 specific enzyme activity induction)
Description: BEAS-2B NQO1 MTT Assay NAD(P)H:quinone oxidoreductase 1 (NQO1), also called DT diaphorase, is a homodimeric FAD-containing enzyme that catalyzes obligatory NAD(P)H-dependent two-electron reductions of quinones and protects cells against the toxic and neoplastic effects of free radicals and reactive oxygen species arising from one-electron reductions. The transcription of NQO1 is finely regulated by NRF2, and thus NQO1 activity is a good marker for NRF2 activation. On day one, frozen BEAS-2B cells (ATCC) are thawed in a water bath, counted, and re-suspended at a concentration of 250,000 cells/mL. Fifty microliters of cells are plated in 384 well black clear-bottomed plates. Plates are incubated at 37° C., 5% CO2 overnight. On day two, plates are centrifuged and 50 nL of compound or controls are added to the cells. Plates are then incubated at 37° C., 5% CO2 for 48 hours. On day four, medium is aspirated from the plate and crude cell lysates are made by adding 13 uL of 1× Cell Signaling Technologies lysis buffer with 1 Complete, Mini, EDTA-free Protease Inhibitor Tablet (Roche) for each 10 mL of lysis buffer. After lysis plates are incubated for 20 minutes at room temperature. Two microliters of lysate are removed for use in Cell Titer Glo assay (Promega) and MTT cocktail is prepared (Prochaska et. al. 1998) for measurement of NQO1 activity. Fifty microliters of MTT cocktail is added to each well, plate is centrifuged, and analyzed on an Envision plate reader (Perkin Elmer) using Absorbance 570 nm label for 30 minutes. Product formation is measured kinetically and the pEC50 of NQO1 specific activity induction is calculated by plotting the change in absorbance (Delta OD/min) versus the log of compound concentration followed by 3-parameter fitting. pEC50 is the negative log of the EC50.

T1 sequence (Q14145 321-609): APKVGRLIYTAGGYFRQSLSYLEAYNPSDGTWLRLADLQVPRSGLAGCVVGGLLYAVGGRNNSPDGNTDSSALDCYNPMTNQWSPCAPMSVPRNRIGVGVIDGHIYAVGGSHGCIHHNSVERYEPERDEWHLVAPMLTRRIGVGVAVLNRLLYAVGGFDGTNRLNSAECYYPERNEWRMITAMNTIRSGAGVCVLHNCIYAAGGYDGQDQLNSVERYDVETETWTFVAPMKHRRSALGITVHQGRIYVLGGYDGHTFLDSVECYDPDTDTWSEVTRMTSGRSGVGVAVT

Row | SMILES | IC50 [1] [nM] | IC50 [2] [nM] | EC50 [3] [nM]
1 | Cc1c(O[C@@H](C)C2CCCCC2)cccc1-c1cccc(-n2ncc(C(=O)O)c2[C@H]2C[C@@H]2c2cn(C)nn2)c1 (racemic) [Example 71, 1-(3′-((S)-1-Cyclohexylethoxy)-2′-methyl-[1,1′-biphenyl]-3-yl)-5-(trans-2-(1-methyl-1H-1,2,3-triazol-4-yl)cyclopropyl)-1H-pyrazole-4-carboxylic Acid] | 1000 to 10000 | 1000 to 10000 | 1000 to 10000
2 | Cc1c(OCC2CCCCC2)cccc1-c1cccc(-n2ncc(C(=O)O)c2[C@H]2C[C@@H]2c2cn(C)nn2)c1 (racemic) [Example 72, 1-(3′-(Cyclohexylmethoxy)-2′-methyl-[1,1′-biphenyl]-3-yl)-5-(trans-2-(1-methyl-1H-1,2,3-triazol-4-yl)cyclopropyl)-1H-pyrazole-4-carboxylic Acid] | 100 to 1000 | 100 to 1000 | 10 to 100
3 | CCn1cc([C@@H]2C[C@H]2c2c(C(=O)O)cnn2-c2cccc(-c3cccc(O[C@@H](C)C4CCCCC4)c3)c2)nn1 (racemic) [Example 76, 1-(3′-((S)-1-Cyclohexylethoxy)-[1,1′-biphenyl]-3-yl)-5-(trans-2-(1-ethyl-1H-1,2,3-triazol-4-yl)cyclopropyl)-1H-pyrazole-4-carboxylic acid] | 10 to 100 | 10 to 100 | 1 to 10
4 | C[C@H](Oc1cccc(-c2cccc(-n3ncc(C(=O)O)c3[C@@H]3C[C@H]3c3cn(C4COC4)nn3)c2)c1)C1CCCCC1 (racemic) [Example 77, 1-(3′-((S)-1-Cyclohexylethoxy)-[1,1′-biphenyl]-3-yl)-5-(trans-2-(1-(oxetan-3-yl)-1H-1,2,3-triazol-4-yl)cyclopropyl)-1H-pyrazole-4-carboxylic acid] | 10 to 100 | 10 to 100 | 10 to 100
5 | C[C@H](Oc1cccc(-c2cccc(-n3ncc(C(=O)O)c3[C@@H]3C[C@H]3c3cn(C4CCC4)nn3)c2)c1)C1CCCCC1 (racemic) [Example 78, 5-(trans-2-(1-Cyclobutyl-1H-1,2,3-triazol-4-yl)cyclopropyl)-1-(3′-((S)-1-cyclohexylethoxy)-[1,1′-biphenyl]-3-yl)-1H-pyrazole-4-carboxylic acid] | 10 to 100 | 10 to 100 | 1 to 10
6 | C[C@H](Oc1cccc(-c2cccc(-n3ncc(C(=O)O)c3[C@@H]3C[C@H]3c3cn(C4CN(C(=O)OC(C)(C)C)C4)nn3)c2)c1)C1CCCCC1 (racemic) [Example 80, 5-(trans-2-(1-(1-(tert-Butoxycarbonyl)azetidin-3-yl)-1H-1,2,3-triazol-4-yl)cyclopropyl)-1-(3′-((S)-1-cyclohexylethoxy)-[1,1′-biphenyl]-3-yl)-1H-pyrazole-4-carboxylic acid] | 100 to 1000 | 10 to 100 | 10 to 100
7 | C[C@H](Oc1cccc(-c2cccc(-n3ncc(C(=O)O)c3[C@@H]3C[C@H]3c3cn(C4CCN(C(=O)OC(C)(C)C)CC4)nn3)c2)c1)C1CCCCC1 (racemic) [Example 81, 5-(trans-2-(1-(1-(tert-Butoxycarbonyl)piperidin-4-yl)-1H-1,2,3-triazol-4-yl)cyclopropyl)-1-(3′-((S)-1-cyclohexylethoxy)-[1,1′-biphenyl]-3-yl)-1H-pyrazole-4-carboxylic acid] | 100 to 1000 | 100 to 1000 | 10 to 100
8 | C[C@H](Oc1cccc(-c2cccc(-n3ncc(C(=O)O)c3[C@@H]3C[C@H]3c3cn(C4CCN(C)CC4)nn3)c2)c1)C1CCCCC1 (racemic) [Example 82, 1-(3′-((S)-1-Cyclohexylethoxy)-[1,1′-biphenyl]-3-yl)-5-(trans-2-(1-(1-methylpiperidin-4-yl)-1H-1,2,3-triazol-4-yl)cyclopropyl)-1H-pyrazole-4-carboxylic acid] | 10 to 100 | 10 to 100 | 10 to 100
9 | C[C@H](Oc1cccc(-c2cccc(-n3ncc(C(=O)O)c3[C@@H]3C[C@H]3c3cn(C4CCCCC4)nn3)c2)c1)C1CCCCC1 (racemic) [Example 84, 5-(trans-2-(1-Cyclohexyl-1H-1,2,3-triazol-4-yl)cyclopropyl)-1-(3′-((S)-1-cyclohexylethoxy)-[1,1′-biphenyl]-3-yl)-1H-pyrazole-4-carboxylic acid] | 100 to 1000 | 10 to 100 | 10 to 100
